Results published in PMC5630632, “Assessing inhibitors of mutant isocitrate dehydrogenase using a suite of pre-clinical discovery assays” (Scientific Reports, 2017).
Values after ≈ are worked out from the molar mass of the structure shown.

Assays:
[1] = in vitro; settings: human, Caco-2
[2] = tested on: JJ012 (R132G) cells; test: 2-HG production, monolayer (2D), mass spectrometry, JJ012; type: cell-based; settings: Homo sapiens, mass spec; for Emax: read-out: 2D Cellular 2HG Production (Mass Spec) JJ012 (R132G) % EMax; for EC50: read-out: 2D Cellular 2HG Production (Mass Spec) JJ012 (R132G) EC50
Experimental: (§1) (Supplementary Table 2). Inhibition of the target was assessed by quantitative measurement of 2-HG levels in extracellular media of monolayer (or 2-dimentional, 2D) cultures following incubation (48 hrs) with inhibitors. […]
(§2) treated 96-well plates (Corning) at a density of 8000 cells/well/100 μL . Plates were sealed with gas permeable membranes (Research Products International Corp.) and incubated at 37°C, 5% CO2, 90% RH for 24 hr. Growth media was subsequently aspirated and replaced with 100 μL of a solution of growth media cont aining either vehicle DMSO or indicated mIDH1 inhibitor. Each compound was tested as an 8-point dilution series ranging from 5 μM to 2.3 nM. After 48 hr treatment, 75 μL of the exhausted media was collected and snap frozen on dry ice. Samples were analyzed by LC-MS for 2- HG concentrations using Rapidfire / Mass Spectrometry (Quintara) (4) . Remaining cells were assessed for viability by adding 100 μL of fresh media and 50 μL of CellTiter-Glo reagent (Promega) as per manufacturer instructions. Luminescence was read using a Vi ewLux High-throu ghpu t CCD imager (PerkinElmer) equipped with clear filters.

[3] = tested on: RBE (R132S) 3D cellular spheroids; test: 2-HG production, spheroids (3D), RBE; type: cell-based; settings: Homo sapiens; 3D spheroid, mass spec
From the text: (§3) To evaluate the effect of mIDH1 inhibitors in more relevant models of solid tumors, we adapted a 3-dimensional (3D) multicellular tumor spheroid assay to monitor spheroid formation and 2-HG production. Small molecules can have diminished efficacy in multicellular tumor spheroid models due to limited penetration and the heterogeneous nature of the 3D tumor spheroid[39],[40]. We began by testing the 6 aforementioned cell lines for their ability to form spheroids in ultra-low attachment plates at varying cell concentrations (1000–5000 cells/well). […] Overall, spheroids produced less extracellular 2-HG than cells cultured in monolayer (Fig. 7B).
(§4) Using these simple 3D models of solid tumors, we assessed the ability of inhibitors to reduce 2-HG production.
(§5) 2-HG production: Cells grown as spheroids (3D)
(§6) (RBE) cells/well/150 μ L to form spheroids. Of note, we were not able to obtain spheroids using SNU1079 cells. Plates were sealed with gas permeable membranes, centrifuged at 40 rcf for 1 min, and incubated at 37°C, 5% CO2, 90% RH for 96 (HT108 0, U87 and JJ01 2) or 4 8 (RBE) h r. Cells were washed (by remo ving 10 0 μL of exhausted media and re placing it with 100 μL of growth media, twice) and treated with 50 μL of a solution of media containing the indicated compounds. Each compound was tested as an 8-point dilution series ranging from 5 μM to 2.3 nM.
(§7) After 96 hr of t reatment, 100 μL of the exhausted media was collected and snap frozen on dry ice. Samples were analyzed by LC -MS for 2- HG concentrations using Rapidfire /Mass Spectrometry (Quintara) ( 4) . Plates were first imaged on the Celigo Imaging Cytometer (Ne xcelom Bioscience) to quantify area of each spheroid. Cell viability was subsequently measured using the CellTiter-Glo assay with some modifications: 50 μL of a solution of CellTiter-Glo reagent containing a final concentration of 0.025 % Trypsin (Thermo Sci entific) was added to each well and plates were shaken at 500 rpm for 30 min before reading.

[4] = High-throughput kinetic solubility (µSOL), pH 7.4; type: physicochemical; settings: aqueous solution pH 7.4, pH 7.4, aqueous buffer, kinetic from dmso stock; read-out: HT Kinetic Solubility, Solubility
Experimental: High-Throughput kinetic solubility test assay
Pion’s patented µSOL assay for kinetic solubility determination was used. In this assay, the classical saturation shake- flask solub ility method was adapted to a 96-well microtiter plate format and a co-solvent method with n- propanol as the […] was utilized. Test compounds were prepared in 10 mM DMSO solutions (45 µ L), and diluted with the co-solve nt to a final drug conce ntration of […]
Samples are incubated at room temperature for 6 hrs t o achieve equilibrium. The samples were then filtered to remove any precipitate formed. The concentrat ion of the compound in the filtrate was measured by UV ab sorbance. […]
used for quantitation of unknown drug concent ration in filtrate. Spectroscopically pure 1- Propanol was used as acosolvent to suppress precipitation in the reference

[5] = Microsomal metabolic stability, mouse; type: in vitro ADME; settings: pH 7.4; mouse liver microsomes
[6] = tested on: RBE (R132S) cells; test: 2-HG production, monolayer (2D), mass spectrometry, RBE; type: cell-based; settings: Homo sapiens, mass spec; for Emax: read-out: 2D Cellular 2HG Production (Mass Spec) RBE (R132S) % EMax; for EC50: read-out: 2D Cellular 2HG Production (Mass Spec) RBE (R132S) EC50
Experimental: as §1, §2

[7] = target: T1, hERG channel (Homo sapiens, UniProt Q12809); test: hERG FluxOR-based thallium flux assay; type: cell-based; settings: for EC50 / Emax: In Vitro Toxicity; for Emax: human, U2OS cells transduced with hERG-BacMam virus
T1 construct: host or cells: U2OS cells (ATCC)

[8] = Microsomal metabolic stability, rat; type: in vitro ADME; settings: pH 7.4; rat liver microsomes
[9] = tested on: JJ012 (R132G) 3D cellular spheroids; test: 2-HG production, spheroids (3D), JJ012; type: cell-based; settings: Homo sapiens; 3D spheroid, mass spec
From the text: as §3, §4, §5, §6, §7

[10] = High-throughput PAMPA (GIT), pH 7.4; type: in vitro ADME; settings: read-out: HT PAMPA Permeability
From the text: In Vitro Physicochemical and Drug Metabolism Studies:
High-Throughput PAMPA assay
The stirring double- sin k PAMPA method patented by pION Inc. (Billeri ca, MA) was employed to determine the permeability of compounds via PAMPA passive diffusion. The PAMPA lipid membrane consisted of an artificial membrane of a proprietary lipid mixture and dodecane (Pion Inc.), optimized to predict gastrointestinal tract (GIT) passive diffusion permeability, was immobilized on a plastic matrix of a 96 well “donor” filter plate placed above a 96 well “a cceptor” plate. A pH 7.4 solution was used in both donor and acceptor wells. The test articles, stocked in 10 mM DMSO solutions, were diluted to 0.05 mM in aqueous buffer (pH 7.4) , and the concentration of DMSO was 0.5% in the final solution. During the 30-min permeation period at room temperature, the test samples in the donor compartment were stirred using the Gutbox te chnology (Pion Inc.) to reduce the unstirred water layer. The test article concentrations in the donor and acceptor compartments were measured using an UV plate reader (Nano Quant, Infinite 200 […]
PRO, Tecan Inc., Männedorf, Switzerland). Permeability calculations were performed using Pion Inc. software and were expressed in units of 10-6 cm/s. […]

T1 sequence (Q12809 whole entry): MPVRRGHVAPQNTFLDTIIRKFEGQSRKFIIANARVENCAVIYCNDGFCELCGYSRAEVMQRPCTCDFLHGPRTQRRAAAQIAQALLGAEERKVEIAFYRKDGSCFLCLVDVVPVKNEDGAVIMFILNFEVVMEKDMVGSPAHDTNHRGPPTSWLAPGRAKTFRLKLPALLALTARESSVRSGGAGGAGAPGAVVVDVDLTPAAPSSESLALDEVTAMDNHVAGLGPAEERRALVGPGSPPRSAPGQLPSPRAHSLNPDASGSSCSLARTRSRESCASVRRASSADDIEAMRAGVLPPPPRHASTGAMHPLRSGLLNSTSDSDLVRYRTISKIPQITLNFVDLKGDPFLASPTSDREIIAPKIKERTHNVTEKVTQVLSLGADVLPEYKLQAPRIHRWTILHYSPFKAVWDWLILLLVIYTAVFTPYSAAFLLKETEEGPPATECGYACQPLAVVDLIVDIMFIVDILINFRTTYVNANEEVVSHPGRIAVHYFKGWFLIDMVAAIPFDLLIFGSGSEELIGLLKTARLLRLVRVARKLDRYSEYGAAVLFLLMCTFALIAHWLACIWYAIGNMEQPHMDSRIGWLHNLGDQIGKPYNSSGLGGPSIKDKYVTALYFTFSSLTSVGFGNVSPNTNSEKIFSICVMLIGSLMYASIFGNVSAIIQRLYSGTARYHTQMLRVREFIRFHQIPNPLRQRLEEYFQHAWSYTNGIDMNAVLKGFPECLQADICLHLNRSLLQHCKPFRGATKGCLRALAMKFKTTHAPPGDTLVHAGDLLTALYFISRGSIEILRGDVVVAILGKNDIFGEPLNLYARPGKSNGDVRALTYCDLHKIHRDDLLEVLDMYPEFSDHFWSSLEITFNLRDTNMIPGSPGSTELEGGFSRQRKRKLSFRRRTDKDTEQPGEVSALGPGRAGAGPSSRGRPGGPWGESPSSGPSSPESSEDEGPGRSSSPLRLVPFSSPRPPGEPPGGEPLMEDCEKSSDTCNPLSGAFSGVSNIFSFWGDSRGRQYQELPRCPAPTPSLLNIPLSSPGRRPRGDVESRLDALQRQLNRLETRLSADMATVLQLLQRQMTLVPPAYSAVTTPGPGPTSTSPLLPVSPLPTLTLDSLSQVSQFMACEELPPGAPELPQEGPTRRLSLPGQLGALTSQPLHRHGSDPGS

N#Cc1ccnc(N2C(=O)CC[C@H]2C(=O)N(c2cncc(F)c2)[C@H](C(=O)NC2CC(F)(F)C2)c2ccccc2Cl)c1 [AG-120, Ivosidenib]
Papp A→B at 2 h, 10 µM [1]: 8.5 nm/s | Papp B→A at 2 h, 10 µM [1]: 474 nm/s | Emax [2]: 67.9% | EC50 [2]: 0.016 µM | EC50 [3]: 0.254 µM | Emax [3]: 62.9% | solubility kinetic at 6 h [4]: 105 µM (≈ 61.3 µg/mL) | half-life at 1 µM [5]: > 120 min | Emax [6]: 89.1% | EC50 [6]: 0.22 µM | EC50 [7]: > 30 µM | Emax [7]: 10.1% | half-life at 1 µM [8]: > 120 min | EC50 [9]: 0.024 µM | Emax [9]: 79.8% | Papp at 30 min, 0.05 mM [10]: 5370 nm/s

Cc1ccccc1C(C(=O)NC1CCCCC1)N(C(=O)Cn1ccnc1C)c1cccc(F)c1 (stereo not shown) [AGI-5198]
Papp A→B at 2 h, 10 µM [1]: 9.9 nm/s | Papp B→A at 2 h, 10 µM [1]: 228 nm/s | Emax [2]: 68.8% | EC50 [2]: 1.64 µM | EC50 [3]: 1.05 µM | Emax [3]: 118% | solubility kinetic at 6 h [4]: 26.2 µM (≈ 12.1 µg/mL) | half-life at 1 µM [5]: 3.5 min | Emax [6]: 69.1% | EC50 [6]: 2 µM | EC50 [7]: > 30 µM | Emax [7]: 3.4% | half-life at 1 µM [8]: 4.4 min | EC50 [9]: 0.428 µM | Emax [9]: 113% | Papp at 30 min, 0.05 mM [10]: > 14000 nm/s

Cc1ccccc1C(C(=O)NC1CCCCC1)N(C(=O)Cn1cnc2ccccc21)c1cccc(F)c1 (stereo not shown) [Agios 135]
Papp A→B at 2 h, 10 µM [1]: 3 nm/s | Papp B→A at 2 h, 10 µM [1]: 38 nm/s | Emax [2]: 74% | EC50 [2]: 0.681 µM | EC50 [3]: 0.451 µM | Emax [3]: 97.4% | solubility kinetic at 6 h [4]: 5.8 µM (≈ 2.89 µg/mL) | half-life at 1 µM [5]: 2.9 min | Emax [6]: 106% | EC50 [6]: 0.81 µM | EC50 [7]: > 30 µM | Emax [7]: 8.1% | half-life at 1 µM [8]: 1.4 min | EC50 [9]: 0.236 µM | Emax [9]: 95.6% | Papp at 30 min, 0.05 mM [10]: 7870 nm/s

COc1c(C)cc(NC(=O)c2nn(Cc3ccc(F)cc3)c3c2CN(C(=O)c2ccc[nH]2)C[C@]3(C)C(N)=O)cc1C [GSK864]
Papp A→B at 2 h, 10 µM [1]: 16.3 nm/s | Papp B→A at 2 h, 10 µM [1]: 81.2 nm/s | Emax [2]: 82.4% | EC50 [2]: 0.519 µM | EC50 [3]: 0.482 µM | Emax [3]: 95.6% | solubility kinetic at 6 h [4]: 0.175 µM (≈ 0.0978 µg/mL) | half-life at 1 µM [5]: 12.7 min | Emax [6]: 102% | EC50 [6]: 0.532 µM | EC50 [7]: 4.83 µM | IC50 ([7]; U2OS cells, thallium flux): 4.7 µM | Emax [7]: 44.9% | half-life at 1 µM [8]: 72.7 min | EC50 [9]: 0.36 µM | Emax [9]: 102% | Papp at 30 min, 0.05 mM [10]: 3650 nm/s

Cc1ccccc1[C@@H](C(=O)NC1CCCC1)N(C(=O)Cn1cnc2ccccc21)c1cccc(F)c1 [ML309]
Papp A→B at 2 h, 10 µM [1]: 49 nm/s | Papp B→A at 2 h, 10 µM [1]: 141 nm/s | Emax [2]: 68.7% | EC50 [2]: 0.711 µM | EC50 [3]: 0.321 µM | Emax [3]: 91.3% | solubility kinetic at 6 h [4]: 26.2 µM (≈ 12.7 µg/mL) | half-life at 1 µM [5]: 2.7 min | Emax [6]: 101% | EC50 [6]: 0.97 µM | EC50 [7]: > 30 µM | Emax [7]: 8.2% | half-life at 1 µM [8]: 1.8 min | EC50 [9]: 0.218 µM | Emax [9]: 92% | Papp at 30 min, 0.05 mM [10]: > 17000 nm/s

CC(=O)N1CCN(Cc2ccc([C@H](C)Nc3nccc(N4C(=O)OC[C@@H]4C(C)C)n3)cc2)CC1 [Norvartis 556]
Papp A→B at 2 h, 10 µM [1]: 179 nm/s | Papp B→A at 2 h, 10 µM [1]: 469 nm/s | Emax [2]: 86.2% | EC50 [2]: 1.06 µM | EC50 [3]: 0.546 µM | Emax [3]: 102% | solubility kinetic at 6 h [4]: 148 µM (≈ 69.1 µg/mL) | half-life at 1 µM [5]: 10.3 min | Emax [6]: 103% | EC50 [6]: 0.912 µM | EC50 [7]: > 30 µM | Emax [7]: 12.1% | half-life at 1 µM [8]: 24.5 min | EC50 [9]: 0.678 µM | Emax [9]: 104% | Papp at 30 min, 0.05 mM [10]: 3900 nm/s
